Here are results for seven molecules from patent publication US8487095B2, “Acid addition salts, hydrates and polymorphs of 5-(2,4-dihydroxy-5-iso-propyl-phenyl)-4-(4-morpholin-4-ylmethyl-phenyl)-isoxazole-3-carboxylic acid ethylamide and formulations comprising these forms” (priority 2007, dated 2013).

Where a name gives a salt, the structure may show the parent alone. Read-outs that look alike come from different tables or passages of the source. Where only a bound is given, the exact number is not on record here.

Series [1] is described as follows: Solubility of the free base and its salts (description). Format: physicochemical.
The conditions of series [2]: clinical, humans; cited from earlier work.
The conditions of series [3]: cited from earlier work.
A short description of series [4]: Hygroscopicity by Dynamic Water Sorption (DVS). Particulars: 25° C.; for found to be hygroscopic: DVS, 'Neither' = not hygroscopic. The format is physicochemical. As for the experimental part: Hygroscopicity is measured using a Dynamic Water Sorption (DVS) apparatus. Measurements are performed at 25° C. using about 8-10 mg of substance. The r.h. is changed in steps of 10% r.h. as follows: 40-0-95-0-40% r.h. The minimum stage time is 60 min, the maximum 180 min, if the change in mass of 10 min is less than 0.002%/min, the r.h. is changed to the next step.

The nature of series [5]: Equilibration in suspension (polymorphism). The format is physicochemical. To be noted: over a range of applied conditions. The source says:
Lack of polymorphism is a beneficial property for a solid form designated to be developed as a medicament.

Series [6] is described as follows: Stress tests in solution or suspensions, 4 weeks at 50° C. (Example 8). The format is physicochemical. Here is the method:
The stability of the AUY922 mesylate salt in different aqueous media were determined under stress conditions (4 weeks at 50° C.) and the following appearance/content recovery/sum of by- and degradation products were found: […]

Series [7] is described as follows: pH and autoclavation of the 4.8-5.2 mg/ml aqueous mesylate solution. The format is physicochemical. Here is the method:
Preferably, the formulation comprises between around 4.8 and 5.2 mg/ml solution, more preferably 5.0 mg/ml solution, of 5-(2,4-dihydroxy-5-isopropyl-phenyl)-4-(4-morpholin-4-ylmethyl-phenyl)-isoxazole-3-carboxylic acid ethylamide mesylate. The pH of such a solution is around 4.2 and therefore at the stability maximum of the mesylate salt. This surprising finding renders the solution particularly suitable for pharmaceutical use. In particular, it allows to use the solution without any other excipients, such as buffers, for stabilizing the drug substance.

The nature of series [8]: Stability and crystal formation of aqueous mesylate solutions on storage. The format is physicochemical. The source says: The expression “free of any other salts” as used herein means that neither any salts derived from inorganic or organic acids, such as sodium chloride, as isotonic agent nor any buffer salts are present.
In one embodiment, the formulation consists of the mesylate salt of an isotonic aqueous solution of 5-(2,4-dihydroxy-5-isopropyl-phenyl)-4-(4-morpholin-4-ylmethyl-phenyl)-isoxazole-3-carboxylic acid ethylamide and 5% w/w of glucose or mannitol. […] Furthermore, the pH of such a solution prevents Maillard reactions during autoclavation of the 5% glucose solution which would lead to discoloration at neutral pH.

The nature of series [9]: Solubility of the mesylate salt in different aqueous media (Example 7). Format: physicochemical. As for the experimental part:
The solubility of the 5-(2,4-dihydroxy-5-isopropyl-phenyl)-4-(4-morpholin-4-ylmethyl-phenyl)-isoxazole-3-carboxylic acid ethylamide (AUY922) mesylate salt in different aqueous media were determined and found to be as follows: […]

A short description of another series: Light sensitivity. The format is physicochemical. Particulars: as solid as well as in solution.
[10] abbreviates: buffer pH 6.0 (phosphate buffer).
Setting [11] is: buffer pH 6.8 (phosphate buffer).
The mark [12] stands for this setting: water, read-out: solubility in water.

For “5-(2,4-dihydroxy-5-isopropyl-phenyl)-4-(4-morpholin-4-ylmethyl-phenyl)-isoxazole-3-carboxylic acid ethylamide hemi fumarate [hemi fumarate salt]”, the solubility in water in series [1] (water) lay within 100 to 250 µg/mL.
With `C=CCNC1=C2C[C@@H](C)C[C@H](OC)[C@H](O)[C@@H](C)/C=C(\C)[C@H](OC(N)=O)[C@@H](OC)/C=C\C=C(/C)C(=O)NC(=CC1=O)C2=O` [Example 17-AAG, 17-allylamino-17-demethoxy-geldanamycin], in [2], the dose limiting toxicity entry is given as “hepatic toxicity”. Moreover, in series [3], the solubility (in general, the concentration that dissolves in the medium under given conditions) is recorded as “poor solubility”.
Take `CCNC(=O)c1noc(-c2cc(C(C)C)c(O)cc2O)c1-c1ccc(CN2CCOCC2)cc1` [free base, 5-(2,4-Dihydroxy-5-isopropyl-phenyl)-4-(4-morpholin-4-ylmethyl-phenyl)-isoxazole-3-carboxylic acid ethylamide]: the “solubility in 0.1 N HCl” value in [1] is 1000 to 2500 µg/mL. Besides, in series [1] (water), the solubility in water entry is on record as “less than 0.1 mg/ml”. The “maximum uptake of water” value in [4] (80% relative humidity) was 1.8%. Further, the “found to be hygroscopic” value in series [4] is on record as “slightly hygroscopic”.
For the molecule `CCNC(=O)c1noc(-c2cc(C(C)C)c(O)cc2O)c1-c1ccc(CN2CCOCC2)cc1` [hydrochloride salt, 5-(2,4-Dihydroxy-5-isopropyl-phenyl)-4-(4-morpholin-4-ylmethyl-phenyl)-isoxazole-3-carboxylic acid ethylamide hydrochloric acid salt], the “solubility in 0.1 N HCl” value in series [1] is listed as “less than 1 mg/ml”. For the same molecule, in series [1] (pH 5), the “solubility at pH 5” value is 1-2.5 mg/ml. In addition, the solubility in water in [1] (water) lay within 2500 to 5000 µg/mL. In addition, the “change of crystalline form by equilibration in suspension” value in series [5] is given as “did not change”. For the same molecule, the “found to be hygroscopic” value in series [4] is listed as “Neither”.
For `CCNC(=O)c1noc(-c2cc(C(C)C)c(O)cc2O)c1-c1ccc(CN2CCOCC2)cc1` [mesylate salt, 5-(2,4-Dihydroxy-5-isopropyl-phenyl)-4-(4-morpholin-4-ylmethyl-phenyl)-isoxazole-3-carboxylic acid ethylamide mesylate], the “solubility compared with the free base (and other salts)” value in series [1] is “superior”. Also, the “solubility in 0.1 N HCl” value in series [1] (mesylate) lay within 10000 to 20000 µg/mL. Further, the solubility in series [1] (pH 5, aqueous buffer, pH 5, read-out: solubility at pH 5) is 1000 to 2500 µg/mL; in series [1] (water, pH 4, water, water at pH 4, read-out: solubility in water at pH 4), 33500 µg/mL; in series [9] (0.9% NaCl solution, saline or isotonic, thermodynamic from solid) it was 12800 µg/mL; in [9] (5% glucose solution, saline or isotonic, thermodynamic from solid), 39000 µg/mL; in [9] (5% mannitol solution, saline or isotonic, thermodynamic from solid) it was 39000 µg/mL; in series [9] (aqueous buffer, thermodynamic from solid, buffer pH 4.0 (acetate buffer)) it was 14600 µg/mL. In addition, the solubility stood at 3200 µg/mL in [9] (aqueous buffer, thermodynamic from solid, buffer pH 5.0 (acetate buffer)); 600 µg/mL in [9] (aqueous buffer, thermodynamic from solid, buffer pH 6.0 (phosphate buffer)); 700 µg/mL in series [9] (aqueous buffer, thermodynamic from solid, buffer pH 7.0 (phosphate buffer)); 1800 µg/mL in [9] (aqueous buffer, thermodynamic from solid, buffer pH 8.0 (borate buffer)); 37500 µg/mL in series [9] (pH 3.6, thermodynamic from solid, Water (pH of the saturated solution=3.6)); 35600 µg/mL in series [9] (saline or isotonic, thermodynamic from solid, 5% glucose solution pH 4). For the same molecule, in series [9] (saline or isotonic, thermodynamic from solid, 5% glucose solution pH 7), the solubility turned out to be 37500 µg/mL. Further, the appearance entry in series [6] (0.9% NaCl), in series [6] (5% glucose solution), in series [6] (Water), in series [6] (buffer pH1.0 (HCl)), in series [6] (buffer pH2.0 (citrate buffer)) and in [6] (buffer pH3.0 (citrate buffer)) was “colorless solution” each time. In addition, the appearance result is “colorless solution” in series [6] (buffer pH 4.0 (acetate buffer)); “colorless solution” in [6] (buffer pH 5.0 (acetate buffer)); “colorless suspension” in series [6] (setting [10]); “colorless suspension” in series [6] (setting [11]); “colorless suspension” in [6] (buffer pH8.0 (borate buffer)). In addition, the “sum of by- and degradation products” value in [6] (0.9% NaCl) is reported as 0.34%; in [6] (5% glucose solution) it was 0.34%; in [6] (Water), 0.32%; in series [6] (buffer pH1.0 (HCl)), 2.83%; in series [6] (buffer pH2.0 (citrate buffer)), 0.58%; in [6] (buffer pH3.0 (citrate buffer)), 0.47%. Further, the “sum of by- and degradation products” value in series [6] (buffer pH 4.0 (acetate buffer)) was found to be 0.36%; in series [6] (buffer pH 5.0 (acetate buffer)) it was 0.50%; in series [6] (setting [10]) it was 0.49%; in series [6] (setting [11]), 0.79%; in series [6] (buffer pH8.0 (borate buffer)) it was 0.26%. In series [6] (stress conditions), the “pH of stability maximum” value is given as 4. For the same molecule, the “pH of the solution” value in series [7] (aqueous solution, around 4.8 to 5.2 mg/ml mesylate) is “around 4.2”. The stability to autoclavation result in series [7] (solution of around 4.8 to 5.2 mg/ml, about 120° C., 20 to 40 minutes, around 2 bar) was “without causing any color changes or degradation products”. Also, the “crystal formation in solution” value in series [8] (in the presence of other salts (e.g. sodium chloride, buffer salts)) is “crystals are formed sooner or later”. For the same molecule, in series [8] (isotonic aqueous solution with 5% w/w of glucose or mannitol), the “chemical stability in formulation” value is reported as “chemically stable”. In addition, in series [8] (isotonic aqueous solution with 5% w/w of glucose or mannitol, longer storage time, e.g. several months), the “crystal formation on storage” value is listed as “crystal formation can be avoided”. For the same molecule, the light sensitivity entry in “Light sensitivity” is recorded as “light sensitive”. Also, the “found to be hygroscopic” value in series [4] (mesylate) is “Neither”.
For the molecule `CCNC(=O)c1noc(-c2cc(C(C)C)c(O)cc2O)c1-c1ccc(CN2CCOCC2)cc1.O=P(O)(O)O` [phosphate salt, 5-(2,4-dihydroxy-5-isopropyl-phenyl)-4-(4-morpholin-4-ylmethyl-phenyl)-isoxazole-3-carboxylic acid ethylamide phosphate], the solubility in series [1] (setting [12]) was in the range of 500 to 1000 µg/mL.
For `CCNC(=O)c1noc(-c2cc(C(C)C)c(O)cc2O)c1-c1ccc(CN2CCOCC2)cc1.O=C(O)C(O)C(O)C(=O)O` [tartrate salt, 5-(2,4-dihydroxy-5-isopropyl-phenyl)-4-(4-morpholin-4-ylmethyl-phenyl)-isoxazole-3-carboxylic acid ethylamide tartrate], in [1] (setting [12]), the solubility is > 2000 µg/mL.
